Data published in ChEMBL document CHEMBL5550184, “Structure-activity relationships of middle-size cyclic peptides, KRAS inhibitors derived from an mRNA display” (Bioorg Med Chem, 2024).
Positions of bridges follow the written chain, without caps; N, C: chain ends. Non-standard residues stand in square brackets, D forms with d. Residues, ends and D or L forms follow the SMILES beside them. *: point of attachment. hPhe(3-Cl-4-CF3) = N[C@@H](CCc1ccc(C(F)(F)F)c(Cl)c1)C(=O)O; NMeGly(cPent) = CN[C@H](C(=O)O)C1CCCC1; NMeCha = CN[C@@H](CC1CCCCC1)C(=O)O; NMeD = CN[C@@H](CC(=O)O)C(=O)O; NMeL = CN[C@@H](CC(C)C)C(=O)O; NMeA = CN[C@@H](C)C(=O)O; Piperidide = C1CCN(*)CC1; Ac5c = NC1(C(=O)O)CCCC1; Aze = O=C(O)[C@@H]1CCN1; Sar = CNCC(=O)O

Experiments:
[1] = Metabolic stability in monkey liver microsomes assessed as intrinsic clearance per mg protein at 0.2 uM measured upto 30 mins by LC-MS/MS analysis; format: ADME, Macaca mulatta, Microsome; details: rhesus monkey, read-out: CLH
[2] = Metabolic stability in mouse liver microsomes assessed as intrinsic clearance per mg protein at 0.2 uM measured upto 30 mins by LC-MS/MS analysis; format: ADME, Microsome; details: read-out: CLH
[3] = Volume of distribution at steady state in BALB/c nude mouse at 1 mg/kg, iv measured upto 24 hrs by LC-MS/MS analysis; format: ADME, organism-based; details: in vivo, read-out: Vdss
[4] = Clearance in BALB/c nude mouse at 1 mg/kg, iv measured upto 24 hrs by LC-MS/MS analysis; format: ADME, organism-based; details: in vivo
[5] = AUCinfinity in BALB/c nude mouse at 20 mg/kg, po measured upto 24 hrs by LC-MS/MS analysis; format: ADME, organism-based; details: in vivo, po, 20 mg/kg, 24 h
[6] = Oral bioavailability in Cynomolgus monkey at 10 mg/kg measured upto 24 hrs by LC-MS/MS analysis; format: ADME, organism-based, Macaca fascicularis; details: in vivo
[7] = Half-life in Cynomolgus monkey at 0.168 mg/kg, iv measured upto 24 hrs by LC-MS/MS analysis; format: ADME, organism-based, Macaca fascicularis; details: in vivo
[8] = Clearance in Cynomolgus monkey at 0.168 mg/kg, iv measured upto 24 hrs by LC-MS/MS analysis; format: ADME, organism-based, Macaca fascicularis; details: in vivo
[9] = Half-life in BALB/c nude mouse at 20 mg/kg, po measured upto 24 hrs by LC-MS/MS analysis; format: ADME, organism-based; details: in vivo
[10] = Volume of distribution at steady state in Wistar Hannover rat at 1 mg/kg, iv measured upto 24 hrs by LC-MS/MS analysis; format: ADME, organism-based; details: in vivo, iv, 1 mg/kg, 24 h
[11] = AUCinfinity in Cynomolgus monkey at 10 mg/kg, po measured upto 48 hrs by LC-MS/MS analysis; format: ADME, organism-based, Macaca fascicularis; details: in vivo
[12] = AUCinfinity in BALB/c nude mouse at 1 mg/kg, iv measured upto 24 hrs by LC-MS/MS analysis; format: ADME, organism-based; details: in vivo, iv, 1 mg/kg, 24 h
[13] = Half-life in Wistar Hannover rat at 10 mg/kg, po measured upto 48 hrs by LC-MS/MS analysis; format: ADME, organism-based; details: in vivo
[14] = Apparent permeability in human Caco-2 cells incubated for 180 mins by LC-MS/MS method; format: ADME, cell-based
[15] = Oral bioavailability in Wistar Hannover rat at 10 mg/kg measured upto 48 hrs by LC-MS/MS analysis; format: ADME, organism-based; details: in vivo
[16] = Half-life in Wistar Hannover rat at 1 mg/kg, iv measured upto 24 hrs by LC-MS/MS analysis; format: ADME, organism-based; details: in vivo, iv, 1 mg/kg, 24 h
[17] = AUCinfinity in Wistar Hannover rat at 10 mg/kg, po measured upto 48 hrs by LC-MS/MS analysis; format: ADME, organism-based; details: in vivo
[18] = Volume of distribution at steady state in Cynomolgus monkey at 0.168 mg/kg, iv measured upto 24 hrs by LC-MS/MS analysis; format: ADME, organism-based, Macaca fascicularis; details: in vivo, read-out: Vdss
[19] = AUCinfinity in Cynomolgus monkey at 0.168 mg/kg, iv measured upto 24 hrs by LC-MS/MS analysis; format: ADME, organism-based, Macaca fascicularis; details: in vivo
[20] = Inhibition of biotin-tagged KRAS G12D mutant (unknown origin) to recombinant His-tagged SOS1 (unknown origin) protein-protein interaction incubated for 120 mins by AlphaLISA method; design: species or system Homo sapiens
[21] = Metabolic stability in rat liver microsomes assessed as intrinsic clearance per mg protein at 0.2 uM measured upto 30 mins by LC-MS/MS analysis; format: ADME, Microsome; details: read-out: CLH
GTPase KRas = GTPase KRas (Homo sapiens, UniProt P01116, G12D); experiment: Binding affinity to biotinylated KRAS G12D mutant (unknown origin) incubated for 120 mins by SPR analysis
Sequence of GTPase KRas (P01116 whole entry G12D): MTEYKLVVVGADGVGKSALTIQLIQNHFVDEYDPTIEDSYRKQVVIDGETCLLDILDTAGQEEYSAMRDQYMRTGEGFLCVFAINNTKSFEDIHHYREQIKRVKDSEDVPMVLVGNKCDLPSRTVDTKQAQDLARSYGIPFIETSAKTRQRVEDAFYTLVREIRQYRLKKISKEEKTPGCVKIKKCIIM

ASPC1 = experiment: Cytotoxicity against human AsPC1 cells assessed as reduction in cell viability incubated for 7 days by CellTiterGlo Luminescent Cell Viability Assay; format: functional, cell-based; details: ASPC1, 168 h
[22] = AUCinfinity in Wistar Hannover rat at 1 mg/kg, iv measured upto 24 hrs by LC-MS/MS analysis; format: ADME, organism-based; details: in vivo
[23] = Oral bioavailability in BALB/c nude mouse at 20 mg/kg measured upto 24 hrs by LC-MS/MS analysis; format: ADME, organism-based; details: in vivo, po, 20 mg/kg, 24 h
[24] = Half-life in BALB/c nude mouse at 1 mg/kg, iv measured upto 24 hrs by LC-MS/MS analysis; format: ADME, organism-based; details: in vivo
[25] = Half-life in Cynomolgus monkey at 10 mg/kg, po measured upto 48 hrs by LC-MS/MS analysis; format: ADME, organism-based, Macaca fascicularis; details: in vivo
[26] = Metabolic stability in human liver microsomes assessed as intrinsic clearance per mg protein at 0.2 uM measured upto 30 mins by LC-MS/MS analysis; format: ADME, Microsome; details: read-out: CLH

Compound: CC[C@H](C)[C@@H]1NC(=O)[C@H](CC(C)C)N(C)C(=O)C[C@@H](C(=O)N2CCCCC2)N(C)C(=O)[C@H](C2CCCC2)N(C)C(=O)C2(CCCC2)NC(=O)[C@@H]2CCCN2C(=O)[C@H](CCc2ccc(C(F)(F)F)c(Cl)c2)NC(=O)CN(C)C(=O)[C@H](CC2CCCCC2)N(C)C(=O)[C@@H]2CCN2C(=O)[C@H](C)N(C)C1=O ([NMeL]I[NMeA][Aze][NMeCha][Sar][hPhe(3-Cl-4-CF3)]P[Ac5c][NMeGly(cPent)][NMeD]-Piperidide; lactam N-11)
- microsomal CLint at 0.2 µM [1]: 32 µL/min/mg
- microsomal CLint at 0.2 µM [2]: 24 µL/min/mg
- Vd [3]: 0.85 L/kg
- clearance [4]: 5.9 mL/min/kg
- AUC [5]: 3270 ng·h/mL
- bioavailability [6]: 11%
- half-life [7]: 7.3 h
- clearance [8]: 1.81 mL/min/kg
- half-life [9]: 6.46 h
- Vdss [10]: 2.6 L/kg
- AUC(0-inf) [11]: 10700 ng·h/mL
- AUC [12]: 2860 ng·h/mL
- half-life [13]: 3.95 h
- Papp at 3 h [14]: 0.61 ×10⁻⁶ cm/s
- bioavailability [15]: 5.7%
- t1/2 [16]: 6.23 h
- AUC(0-inf) [17]: 5770 ng·h/mL
- Vd [18]: 0.49 L/kg
- AUC(0-inf) [19]: 1590 ng·h/mL
- IC50 [20]: < 2 nM
- microsomal CLint at 0.2 µM [21]: 28 µL/min/mg
- Kd (GTPase KRas): 0.47 nM
- IC50 (ASPC1): 18 nM
- AUC(0-inf) [22]: 7970 ng·h/mL
- F [23]: 16%
- half-life [24]: 8.62 h
- half-life [25]: 8.65 h
- microsomal CLint at 0.2 µM [26]: 18 µL/min/mg
